Source: patent US20220119354A1, “DIAMINO-SUBSTITUTED PYRIDINES AND PYRIMIDINES AS HERBICIDES” (FMC Corporation, priority 2019, published 2022)

Key:
Type in all cases: in vivo
[1] = system: sedge, umbrella (small-flower umbrella sedge, Cyperus difformis); assay: Test B flooded paddy test, umbrella sedge; conditions: Flood, 250 g ai/ha, applied to paddy water, 2-leaf stage, visual evaluation after 13 to 15 d
Outline: (§1)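 Rating: 0 = no effect, 100 = complete control, visual, relative to untreated plants. Conditions: 2-leaf stage, 3 cm flood kept constant, compound put directly into water, 13–15 d greenhouse.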

[2] = system: barnyardgrass (Echinochloa crus-galli); assay: Test A postemergence, barnyardgrass; conditions: 0 to 100 scale
Outline: (§2)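 Using a solvent/surfactant formulation, test chemicals were sprayed onto freshly seeded soil or onto 2–10 cm seedlings at the one- to two-leaf stage. Visual injury ratings on a 0–100 scale were made about 10 d later in the greenhouse.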

[3] = system: pigweed (Amaranthus retroflexus); assay: Test A postemergence, pigweed; conditions: 0 to 100 scale
Outline: as §2

[4] = system: wheat (Triticum aestivum); assay: Test A postemergence, wheat; conditions: 0 to 100 scale
Outline: as §2

[5] = system: galium (catchweed bedstraw, Galium aparine); assay: Test A postemergence, galium; conditions: 0 to 100 scale
Outline: as §2

[6] = system: foxtail, giant (Setaria faberii); assay: Test A postemergence, giant foxtail; conditions: 0 to 100 scale
Outline: as §2

rice (Oryza sativa) = assay: Test B flooded paddy test, rice; conditions: Flood, 250 g ai/ha, applied to paddy water, 2-leaf stage, visual evaluation after 13 to 15 d
Outline: as §1

[7] = system: ryegrass, Italian (Lolium multiflorum); assay: Test A preemergence, Italian ryegrass; conditions: 0 to 100 scale; for Ryegrass, Italian plant response rating: 0 is no effect, 100 is complete control
Outline: as §2

kochia (Kochia scoparia) [8] = assay: Test A postemergence, kochia; conditions: 0 to 100 scale
Outline: as §2

[9] = system: ryegrass, Italian (Lolium multiflorum); assay: Test A postemergence, Italian ryegrass; conditions: 0 to 100 scale
Outline: as §2

[10] = system: barnyardgrass (Echinochloa crus-galli); assay: Test B flooded paddy test, barnyardgrass; conditions: Flood, 250 g ai/ha, applied to paddy water, 2-leaf stage, visual evaluation after 13 to 15 d
Outline: as §1

[11] = system: blackgrass (Alopecurus myosuroides); assay: Test A postemergence, blackgrass; conditions: 0 to 100 scale
Outline: as §2

[12] = system: ragweed (common ragweed, Ambrosia elatior); assay: Test A postemergence, ragweed; conditions: 0 to 100 scale
Outline: as §2

[13] = system: pigweed (Amaranthus retroflexus); assay: Test A preemergence, pigweed; conditions: 0 to 100 scale; for Pigweed plant response rating: 0 is no effect, 100 is complete control
Outline: as §2

kochia (Kochia scoparia) [14] = assay: Test A preemergence, kochia; conditions: 0 to 100 scale; for Kochia plant response rating: 0 is no effect, 100 is complete control
Outline: as §2

[15] = system: ducksalad (Heteranthera limosa); assay: Test B flooded paddy test, ducksalad; conditions: Flood, 250 g ai/ha, applied to paddy water, 2-leaf stage, visual evaluation after 13 to 15 d
Outline: as §1

[16] = system: ragweed (common ragweed, Ambrosia elatior); assay: Test A preemergence, ragweed; conditions: 0 to 100 scale; for Ragweed plant response rating: 0 is no effect, 100 is complete control
Outline: as §2

[17] = system: foxtail, giant (Setaria faberii); assay: Test A preemergence, giant foxtail; conditions: 0 to 100 scale; for Foxtail, Giant plant response rating: 0 is no effect, 100 is complete control
Outline: as §2

[18] = system: barnyardgrass (Echinochloa crus-galli); assay: Test A preemergence, barnyardgrass; conditions: 0 to 100 scale; for Barnyardgrass plant response rating: 0 is no effect, 100 is complete control
Outline: as §2

corn (Zea mays) = assay: Test A postemergence, corn; conditions: 0 to 100 scale
Outline: as §2

[19] = 125 g ai/ha, 0 no effect, 100 complete control
[20] = 500 g ai/ha, 0 is no effect, 100 is complete control
[21] = 500 g ai/ha, 0 no effect, 100 complete control

CC(COc1cc(Cl)cc(Cl)c1)Nc1ncc(C(F)(F)F)c(N)n1 (stereo not drawn) [Compound 35]
Plant response rating, Sedge, Umbrella (0 to 100 scale, 0 is no effect, 100 is complete control) [1]: 0 | Plant response rating, Barnyardgrass ([2]; 125 g ai/ha): 20 | Plant response rating, Barnyardgrass ([2]; 500 g ai/ha): 0 | Plant response rating, Pigweed ([3]; 125 g ai/ha): 0 | Plant response rating, Pigweed ([3]; 500 g ai/ha): 50 | Plant response rating, Wheat ([4]; 125 g ai/ha): 0 | Plant response rating, Wheat ([4]; 500 g ai/ha): 0 | Plant response rating, Galium ([5]; 125 g ai/ha): 0 | Plant response rating, Galium ([5]; 500 g ai/ha): 60 | Plant response rating, Foxtail, Giant ([6]; 125 g ai/ha): 0 | Plant response rating, Foxtail, Giant ([6]; 500 g ai/ha): 0 | Plant response rating, Rice (0 to 100 scale, 0 is no effect, 100 is complete control) (rice (Oryza sativa)): 0 | Ryegrass, Italian plant response rating ([7]; 125 g ai/ha): 0 | Plant response rating, Ryegrass, Italian ([7]; 500 g ai/ha): 0 | Plant response rating, Kochia (kochia (Kochia scoparia) [8]; 125 g ai/ha): 0 | Plant response rating, Kochia (kochia (Kochia scoparia) [8]; 500 g ai/ha): 20 | Plant response rating, Ryegrass, Italian ([9]; 125 g ai/ha): 40 | Plant response rating, Ryegrass, Italian ([9]; 500 g ai/ha): 30 | Plant response rating, Barnyardgrass (0 to 100 scale, 0 is no effect, 100 is complete control) [10]: 0 | Plant response rating, Blackgrass ([11]; 125 g ai/ha): 0 | Plant response rating, Blackgrass ([11]; 500 g ai/ha): 0 | Plant response rating, Ragweed ([12]; 125 g ai/ha): 0 | Plant response rating, Ragweed ([12]; 500 g ai/ha): 0 | Pigweed plant response rating ([13]; 125 g ai/ha): 0 | Plant response rating, Pigweed ([13]; 500 g ai/ha): 0 | Kochia plant response rating (kochia (Kochia scoparia) [14]; 125 g ai/ha): 0 | Plant response rating, Kochia (kochia (Kochia scoparia) [14]; 500 g ai/ha): 40 | Plant response rating, Ducksalad (0 to 100 scale, 0 is no effect, 100 is complete control) [15]: 0 | Ragweed plant response rating ([16]; 125 g ai/ha): 0 | Plant response rating, Ragweed ([16]; 500 g ai/ha): 0 | Foxtail, Giant plant response rating ([17]; 125 g ai/ha): 0 | Plant response rating, Foxtail, Giant ([17]; 500 g ai/ha): 0 | Barnyardgrass plant response rating ([18]; 125 g ai/ha): 0 | Plant response rating, Barnyardgrass ([18]; 500 g ai/ha): 0 | Plant response rating, Corn (corn (Zea mays); 125 g ai/ha): 0 | Plant response rating, Corn (corn (Zea mays); 500 g ai/ha): 0

C[C@@H](Nc1ncc(C(F)(F)F)c(N)n1)c1csc2ccccc12 [Compound 41]
Plant response rating, Sedge, Umbrella (0 to 100 scale, 0 is no effect, 100 is complete control) [1]: 65 | Plant response rating, Barnyardgrass [2, 19]: 0 | Barnyardgrass plant response rating [2, 20]: 50 | Plant response rating, Pigweed [3, 19]: 90 | Pigweed plant response rating [3, 20]: 100 | Plant response rating, Wheat [4, 19]: 0 | Wheat plant response rating [4, 20]: 0 | Plant response rating, Galium [5, 19]: 50 | Galium plant response rating [5, 20]: 70 | Plant response rating, Foxtail, Giant [6, 19]: 50 | Foxtail, Giant plant response rating [6, 20]: 100 | Plant response rating, Rice (0 to 100 scale, 0 is no effect, 100 is complete control) (rice (Oryza sativa)): 0 | Ryegrass, Italian plant response rating ([7]; 125 g ai/ha): 20 | Ryegrass, Italian plant response rating ([7]; 500 g ai/ha): 80 | Plant response rating, Kochia (kochia (Kochia scoparia) [8]; [19]): 70 | Kochia plant response rating (kochia (Kochia scoparia) [8]; [20]): 90 | Plant response rating, Ryegrass, Italian [9, 19]: 20 | Ryegrass, Italian plant response rating [9, 20]: 70 | Plant response rating, Barnyardgrass (0 to 100 scale, 0 is no effect, 100 is complete control) [10]: 15 | Plant response rating, Blackgrass [11, 19]: 0 | Blackgrass plant response rating [11, 20]: 0 | Plant response rating, Ragweed [12, 19]: 60 | Ragweed plant response rating [12, 20]: 90 | Pigweed plant response rating ([13]; 125 g ai/ha): 80 | Pigweed plant response rating ([13]; 500 g ai/ha): 100 | Kochia plant response rating (kochia (Kochia scoparia) [14]; 125 g ai/ha): 70 | Kochia plant response rating (kochia (Kochia scoparia) [14]; 500 g ai/ha): 90 | Plant response rating, Ducksalad (0 to 100 scale, 0 is no effect, 100 is complete control) [15]: 35 | Ragweed plant response rating ([16]; 125 g ai/ha): 90 | Ragweed plant response rating ([16]; 500 g ai/ha): 100 | Foxtail, Giant plant response rating ([17]; 125 g ai/ha): 30 | Foxtail, Giant plant response rating ([17]; 500 g ai/ha): 90 | Barnyardgrass plant response rating ([18]; 125 g ai/ha): 40 | Barnyardgrass plant response rating ([18]; 500 g ai/ha): 90 | Plant response rating, Corn (corn (Zea mays); [19]): 10 | Corn plant response rating (corn (Zea mays); [20]): 20

CC(Nc1ncc(C(F)(F)F)c(N)n1)c1coc2cccc(F)c12 (racemic) [Compound 96]
Plant response rating, Sedge, Umbrella (0 to 100 scale, 0 is no effect, 100 is complete control) [1]: 0 | Plant response rating, Barnyardgrass [2, 19]: 30 | Plant response rating, Barnyardgrass [2, 21]: 40 | Plant response rating, Pigweed [3, 19]: 60 | Plant response rating, Pigweed [3, 21]: 90 | Plant response rating, Wheat [4, 19]: 0 | Plant response rating, Wheat [4, 21]: 0 | Plant response rating, Galium [5, 19]: 60 | Plant response rating, Galium [5, 21]: 80 | Plant response rating, Foxtail, Giant [6, 19]: 0 | Plant response rating, Foxtail, Giant [6, 21]: 60 | Plant response rating, Rice (0 to 100 scale, 0 is no effect, 100 is complete control) (rice (Oryza sativa)): 0 | Ryegrass, Italian plant response rating ([7]; 125 g ai/ha): 0 | Ryegrass, Italian plant response rating ([7]; 500 g ai/ha): 50 | Plant response rating, Kochia (kochia (Kochia scoparia) [8]; [19]): 20 | Plant response rating, Kochia (kochia (Kochia scoparia) [8]; [21]): 90 | Plant response rating, Ryegrass, Italian [9, 19]: 0 | Plant response rating, Ryegrass, Italian [9, 21]: 0 | Plant response rating, Barnyardgrass (0 to 100 scale, 0 is no effect, 100 is complete control) [10]: 0 | Plant response rating, Blackgrass [11, 19]: 0 | Plant response rating, Blackgrass [11, 21]: 30 | Plant response rating, Ragweed [12, 19]: 20 | Plant response rating, Ragweed [12, 21]: 80 | Pigweed plant response rating ([13]; 125 g ai/ha): 70 | Pigweed plant response rating ([13]; 500 g ai/ha): 90 | Kochia plant response rating (kochia (Kochia scoparia) [14]; 125 g ai/ha): 0 | Kochia plant response rating (kochia (Kochia scoparia) [14]; 500 g ai/ha): 0 | Plant response rating, Ducksalad (0 to 100 scale, 0 is no effect, 100 is complete control) [15]: 0 | Ragweed plant response rating ([16]; 125 g ai/ha): 50 | Ragweed plant response rating ([16]; 500 g ai/ha): 70 | Foxtail, Giant plant response rating ([17]; 125 g ai/ha): 20 | Foxtail, Giant plant response rating ([17]; 500 g ai/ha): 80 | Barnyardgrass plant response rating ([18]; 125 g ai/ha): 0 | Barnyardgrass plant response rating ([18]; 500 g ai/ha): 90 | Plant response rating, Corn (corn (Zea mays); [19]): 40 | Plant response rating, Corn (corn (Zea mays); [21]): 60
